Results: US20210238138A1, “Method for improving nucleation of crystals from solution” (Université Libre de Bruxelles, priority 2018, published 2021)
≈ marks a conversion by molar mass, not a printed value.

Assays:
[1] = Solubility of Brivaracetam in IPAc; details: IPAc (isopropyl acetate), organic solvent or mixture
[2] = Cooling crystallisation of Brivaracetam/IPAc in capillary tubing; assay type: physicochemical; details: 7 m tubing; for Appearance of crystals: 30 mL/min, 1 restriction, bath 20° C., initial 45° C.
Method: For example, following tests were made on Brivaracetam/IPAc (IsoPropylAcetate) at different concentrations. Induction time (appearance of crystals) is shown in table 1 for different increasing concentrations at a crystallization temperature of 20° C. after flowing through the tube at 30 mL/min in a 7 m long tubing.
(so same overall supersaturation). The variation in crystal size is shown without and with a 5 cm long 500 μm restriction. “Needles and rods” indicate appearance of concurring crystallizations of the two possible crystal types of Brivaracetam. Therefore the method also influences selectivity for one single crystal form. In the case of Brivaracetam, rods are preferred.
The advantage of using restriction(s) has already been indicated in previous tables. A series of tests was also performed using identical conditions and only changing the number of identical restrictions. In table 3, the tests were performed with restrictions of 1 mm in length and having an inner diameter of 500 μm. Crystal length decreases drastically when placing more restrictions in series in the tubing line.
Also different geometries of restriction were tested on Brivaracetam/IPAc mixtures: different lengths and different inner diameters.
(§1) The crystallization temperature is controlled by a water bath containing about 5 L of water, temperature is monitored at all times by a thermocouple. This water is cooled by a 1 m long cupper serpentine plunged into the bath with cooling liquid flowing from and to a cryothermostat, the water bath itself is agitated with a magnetic bar stirrer. The internal volume of a 7 m long tubing of […] is about 22 mL. As this volume is 220 times smaller than the volume of the present water it is assumed that the water temperature remains within a 0.5° C. or smaller margin of the set temperature value.

[3] = Cooling crystallisation of acetylsalicylic acid in ethanol/water in capillary tubing; assay type: physicochemical; details: 200 mg/mL 50 vol % ethanol/water, residence time 5.3 s, initial 65° C., bath 10° C.
Method: Tubing length should also be adapted when no antisolvent is added to the molecule/solvent solution.
as §1
This reduction in size has to be performed in order to increase the reigning Reynolds number inside the restriction at set flow rates and concentrations.
For example, in a series of tests, an identical total residence time inside the tubing of 5.3 s was respected. A solution of 200 mg/mL aspirin in 50 vol % ethanol/water was used; at different flow rates. This means that the total length of the tubing inside the water bath was varied according to the set flow rate in order to retain the 5.3 s residence time.

[4] = Maturing of acetylsalicylic acid crystals (growth treatment, early filtration); assay type: physicochemical; details: 3 m tubing, Tc 15° C., σ 4.5, 30 mL/min; for Sphere Equivalent Diameter: thickness set to ⅕ of width
Method: Obtaining different crystal sizes as end-product then depends on the time that is given to the crystals to mature further. […] To further proof the effect of early filtration (see table 10), the liquor of tests 43 and 44 were also directly filtered after exiting the tubing (test 49 and 50, respectively); the product of test 44 was also collected for 2 minutes and filtered afterwards (test 51).

[5] = test 2: 600 mg/mL in IPAc, Tc 0° C., σ 11, Q 43 mL/min, no restriction
[6] = test 3: 600 mg/mL in IPAc, Tc 0° C., σ 11, Q 32 mL/min, no restriction
[7] = test 4: 600 mg/mL in IPAc, Tc 0° C., σ 11, Q 21 mL/min, no restriction
[8] = test 6: 600 mg/mL in IPAc, Tc 0° C., σ 11, Q 43 mL/min, restriction 5 cm long, 500 μm
[9] = test 7: 600 mg/mL in IPAc, Tc 0° C., σ 11, Q 32 mL/min, restriction 5 cm long, 500 μm
[10] = test 8: 600 mg/mL in IPAc, Tc 0° C., σ 11, Q 21 mL/min, restriction 5 cm long, 500 μm
[11] = test 9: 400 mg/mL in IPAc, Tc 10° C., σ 4.7, Q 30 mL/min, 0 restrictions
[12] = test 9 as listed in Table 4: 400 mg/mL in IPAc, Tc 10° C., σ 4.7, Q 30 mL/min, restriction none
[13] = test 10: 400 mg/mL in IPAc, Tc 10° C., σ 4.7, Q 30 mL/min, 1 restriction 1 mm long, 500 μm
[14] = test 11: 400 mg/mL in IPAc, Tc 10° C., σ 4.7, Q 30 mL/min, 1 restriction 1 mm long, 500 μm
[15] = test 12: 400 mg/mL in IPAc, Tc 10° C., σ 4.7, Q 30 mL/min, 2 restrictions 1 mm long, 500 μm
[16] = test 13: 400 mg/mL in IPAc, Tc 10° C., σ 4.7, Q 30 mL/min, 2 restrictions 1 mm long, 500 μm
[17] = test 14: 400 mg/mL in IPAc, Tc 10° C., σ 4.7, Q 30 mL/min, 3 restrictions 1 mm long, 500 μm
[18] = test 15: 400 mg/mL in IPAc, Tc 10° C., σ 4.7, Q 30 mL/min, 3 restrictions 1 mm long, 500 μm
[19] = test 16: 400 mg/mL in IPAc, Tc 10° C., σ 4.7, Q 30 mL/min, 4 restrictions 1 mm long, 500 μm
[20] = test 17: 400 mg/mL in IPAc, Tc 10° C., σ 4.7, Q 30 mL/min, one restriction length 5 cm, diameter 500 μm
[21] = test 18: 400 mg/mL in IPAc, Tc 10° C., σ 4.7, Q 30 mL/min, one restriction length 5 cm, diameter 750 μm
[22] = test 19: 400 mg/mL in IPAc, Tc 10° C., σ 4.7, Q 30 mL/min, one restriction length 20 cm, diameter 500 μm
[23] = test 20: 400 mg/mL in IPAc, Tc 10° C., σ 4.7, Q 30 mL/min, one restriction length 50 cm, diameter 500 μm
[24] = test 21: 400 mg/mL in IPAc, Tc 10° C., σ 4.7, Q 30 mL/min, one restriction length 100 cm, diameter 500 μm
[25] = test 49: 200 mg/mL ethanol/water 50/50 vol %, restriction 1 of 250 μm ID, filtration At exit
[26] = test 50: 200 mg/mL ethanol/water 50/50 vol %, restriction 2 of 250 μm ID, filtration At exit
[27] = test 51: 200 mg/mL ethanol/water 50/50 vol %, restriction 2 of 250 μm ID, filtration After 120 s

CCC[C@@H]1CC(=O)N([C@@H](CC)C(N)=O)C1 [Brivaracetam]
solubility ([1]; 20 °C): 136 mg/mL (≈ 641 mM) | solubility ([1]; 45 °C): ~1100 mg/mL (≈ 5180 mM) | Appearance of crystals ([2]; 150 mg/mL in IPAc, supersaturation 0.09): None | Appearance of crystals ([2]; 200 mg/mL in IPAc, supersaturation 0.47): None | Appearance of crystals ([2]; 250 mg/mL in IPAc, supersaturation 0.83): 20 h | Appearance of crystals ([2]; 300 mg/mL in IPAc, supersaturation 1.21): 2 h | Appearance of crystals ([2]; 350 mg/mL in IPAc, supersaturation 1.57): 0.5 h | Appearance of crystals ([2]; 400 mg/mL in IPAc, supersaturation 1.94): Immediate | Appearance of crystals ([2]; 500 mg/mL in IPAc, supersaturation 2.68): Immediate | Appearance of crystals ([2]; 600 mg/mL in IPAc, supersaturation 3.41): Immediate, white slurry | Appearance of crystals ([2]; 800 mg/mL in IPAc, supersaturation 4.88): Immediate, white slurry | Appearance crystals ([2]; test 1: 600 mg/mL in IPAc, Tc 0° C., σ 11, Q 54 mL/min, no restriction): Needles | Appearance crystals [2, 5]: Rods | Crystal length [2, 5]: 1020 ± 196 μm | J (nucleation rate) [2, 5]: 2 100 mL^−1 · s^−1 | Appearance crystals [2, 6]: Rods | Crystal length [2, 6]: 365 ± 106 μm | J (nucleation rate) [2, 6]: 43 000 mL^−1 · s^−1 | Appearance crystals [2, 7]: Rods | Crystal length [2, 7]: 258 ± 76 μm | J (nucleation rate) [2, 7]: 121 000 mL^−1 · s^−1 | Appearance crystals ([2]; test 5: 600 mg/mL in IPAc, Tc 0° C., σ 11, Q 54 mL/min, restriction 5 cm long, 500 μm): Needles | Appearance crystals [2, 8]: Rods | Crystal length [2, 8]: 227 ± 64 μm | J (nucleation rate) [2, 8]: 181 000 mL^−1 · s^−1 | Appearance crystals [2, 9]: Rods | Crystal length [2, 9]: 121 ± 33 μm | J (nucleation rate) [2, 9]: 1 200 000 mL^−1 · s^−1 | Appearance crystals [2, 10]: Rods | Crystal length [2, 10]: 175 ± 100 μm | J (nucleation rate) [2, 10]: 400 000 mL^−1 · s^−1 | Appearance crystals [2, 11]: Rods | Crystal length [2, 11]: 195 μm | J (nucleation rate) [2, 11]: 66 000 mL.^−1s^−1 | Appearance crystals [2, 12]: Rods | Crystal length [2, 12]: 195 μm | J (nucleation rate) [2, 12]: 131 000 mL^−1 · s^−1 | Appearance crystals [2, 13]: Rods | Crystal length [2, 13]: 62 μm | J (nucleation rate) [2, 13]: 3 085 000 mL.^−1s^−1 | Appearance crystals [2, 14]: Rods | Crystal length [2, 14]: 62 μm | J (nucleation rate) [2, 14]: 1 609 000 mL.^−1s^−1 | Appearance crystals [2, 15]: Rods | Crystal length [2, 15]: 46 μm | J (nucleation rate) [2, 15]: 8 500 000 mL.^−1s^−1 | Appearance crystals [2, 16]: Rods | Crystal length [2, 16]: 43 μm | J (nucleation rate) [2, 16]: 7 300 000 mL.^−1s^−1 | Appearance crystals [2, 17]: Rods | Crystal length [2, 17]: 37 μm | J (nucleation rate) [2, 17]: 12 000 000 mL.^−1s^−1 | Appearance crystals [2, 18]: Rods | Crystal length [2, 18]: 40 μm | J (nucleation rate) [2, 18]: 11 500 000 mL.^−1s^−1 | Appearance crystals [2, 19]: Rods | Crystal length [2, 19]: 35 μm | J (nucleation rate) [2, 19]: 9 700 000 mL.^−1s^−1 | Appearance crystals [2, 20]: Rods | Crystal length [2, 20]: 143 μm | J (nucleation rate) [2, 20]: 310 000 mL^−1 · s^−1 | Appearance crystals [2, 21]: Rods | Crystal length [2, 21]: 120 μm | J (nucleation rate) [2, 21]: 500 000 mL^−1 · s^−1 | Appearance crystals [2, 22]: Rods | Crystal length [2, 22]: 95 μm | J (nucleation rate) [2, 22]: 642 000 mL^−1 · s^−1 | Appearance crystals [2, 23]: Rods | Crystal length [2, 23]: 207 μm | J (nucleation rate) [2, 23]: 132 000 mL^−1 · s^−1 | Appearance crystals [2, 24]: Rods | Crystal length [2, 24]: 211 μm | J (nucleation rate) [2, 24]: 107 000 mL^−1 · s^−1

CC(=O)Oc1ccccc1C(=O)O [Acetylsalicylic acid, acetylsalicylic acid]
Crystal length ([3]; tubing ID 750 μm, flow rate 20 mL/min, tubing length 4.2 m): 377 μm | Nucleation rate J ([3]; tubing ID 750 μm, flow rate 30 mL/min, tubing length 6.2 m): 170 000 mL^−1 · s−^1 | Crystal length ([3]; tubing ID 1000 μm, flow rate 30 mL/min, tubing length 3.6 m): 495 μm | Crystal length ([3]; tubing ID 1000 μm, flow rate 40 mL/min, tubing length 4.7 m): 416 μm | Crystal length [4, 25]: 104 ± 55 μm | Crystal width [4, 25]: 28 ± 13 μm | Sphere Equivalent Diameter [4, 25]: 32 ± 7 μm | Crystal width [4, 26]: 23 ± 17 μm | Sphere Equivalent Diameter [4, 26]: 24 ± 8 μm | Crystal length [4, 27]: 155 ± 91 μm | Crystal width [4, 27]: 36 ± 17 μm
